# Test system: 889142-216-R-J1-PDC complex spheroid viability
# Assay: Anticancer human tumor 889142-216-R-J1-PDC patient-derived bladder carcinoma cell line growth inhibition [POLQ]
# Details: for IC50: curve of first compound; for viability, T/C: stronger effect = lower value
# Method in brief: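 PDC + HUVEC + MSC complex spheroids; POLQ inhibitors ± partner drugs; top conc. at/near clinical Cmax, else 10 microM (SN-38 1 microM), half-log dilutions; 37 degrees C, 5% CO2.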
# [1] = second compound 0.0316 µM, first compound 0.0316 µM
# [2] = second compound 0.0316 µM, first compound 0.1 µM
# [3] = second compound 0.0316 µM, first compound 0.316 µM
# [4] = second compound 0.0316 µM, first compound 1 µM
# [5] = second compound 0.0316 µM, first compound 3.16 µM
# [6] = second compound 0.0316 µM, first compound 10 µM
# [7] = second compound 0.1 µM, first compound 0.0316 µM
# [8] = second compound 0.1 µM, first compound 0.1 µM
# [9] = second compound 0.1 µM, first compound 0.316 µM
# [10] = second compound 0.1 µM, first compound 1 µM
# [11] = second compound 0.1 µM, first compound 3.16 µM
# [12] = second compound 0.1 µM, first compound 10 µM
# [13] = second compound 0.316 µM, first compound 0.0316 µM
# [14] = second compound 0.316 µM, first compound 0.1 µM
# [15] = second compound 0.316 µM, first compound 0.316 µM
# [16] = second compound 0.316 µM, first compound 1 µM
# [17] = second compound 0.316 µM, first compound 3.16 µM
# [18] = second compound 0.316 µM, first compound 10 µM
# [19] = second compound 1 µM, first compound 0.0316 µM
# [20] = second compound 1 µM, first compound 0.1 µM
# [21] = second compound 1 µM, first compound 0.316 µM
# [22] = second compound 1 µM, first compound 1 µM
# [23] = second compound 1 µM, first compound 3.16 µM
# [24] = second compound 1 µM, first compound 10 µM
# [25] = second compound 3.16 µM, first compound 0.0316 µM
# [26] = second compound 3.16 µM, first compound 0.1 µM
# [27] = second compound 3.16 µM, first compound 0.316 µM
# [28] = second compound 3.16 µM, first compound 1 µM
# [29] = second compound 3.16 µM, first compound 3.16 µM
# [30] = second compound 3.16 µM, first compound 10 µM
# [31] = second compound 10 µM, first compound 0.0316 µM
# [32] = second compound 10 µM, first compound 0.1 µM
# [33] = second compound 10 µM, first compound 0.316 µM
# [34] = second compound 10 µM, first compound 1 µM
# [35] = second compound 10 µM, first compound 3.16 µM
# [36] = second compound 10 µM, first compound 10 µM
# 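Further: spheroids exposed to compounds for seven days.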
# 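Wherever viability, T/C is given: 100% = DMSO vehicle control viability.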
smiles,measurement,setting,value
COc1ccc([C@@H](O)c2cc(-c3ncnc4cc(N5CCOCC5)ccc34)c(F)cc2Cl)nn1 + COC1C(OC(N)=O)C(O)C(Oc2ccc3c(O)c(NC(=O)c4ccc(O)c(CC=C(C)C)c4)c(=O)oc3c2C)OC1(C)C,IC50,second compound 0.0316 µM,4.25 µM
same,IC50,second compound 0.1 µM,> 10 µM
same,IC50,second compound 0.316 µM,6.29 µM
same,IC50,second compound 1 µM,2.87 µM
same,IC50,second compound 3.16 µM,3.64 µM
same,IC50,second compound 10 µM,4.53 µM
same,"viability, T/C",[1],88.8%
same,"viability, T/C",[2],88.3%
same,"viability, T/C",[3],63.9%
same,"viability, T/C",[4],63%
same,"viability, T/C",[5],55.6%
same,"viability, T/C",[6],41.5%
same,"viability, T/C",[7],104%
same,"viability, T/C",[8],125%
same,"viability, T/C",[9],76.2%
same,"viability, T/C",[10],62.7%
same,"viability, T/C",[11],55.7%
same,"viability, T/C",[12],35.9%
same,"viability, T/C",[13],92.2%
same,"viability, T/C",[14],104%
same,"viability, T/C",[15],87%
same,"viability, T/C",[16],79.1%
same,"viability, T/C",[17],63.4%
same,"viability, T/C",[18],41.4%
same,"viability, T/C",[19],90.3%
same,"viability, T/C",[20],112%
same,"viability, T/C",[21],86.7%
same,"viability, T/C",[22],59.8%
same,"viability, T/C",[23],60.3%
same,"viability, T/C",[24],37.3%
same,"viability, T/C",[25],81.3%
same,"viability, T/C",[26],120%
same,"viability, T/C",[27],77.6%
same,"viability, T/C",[28],66.9%
same,"viability, T/C",[29],56.9%
same,"viability, T/C",[30],39.8%
same,"viability, T/C",[31],98.2%
same,"viability, T/C",[32],82.1%
same,"viability, T/C",[33],104%
same,"viability, T/C",[34],74.8%
same,"viability, T/C",[35],59.6%
same,"viability, T/C",[36],32.9%
CCc1cc2c(N3CCc4c(cc(Cn5ccnc5)cc4-c4cn(C)nc4C(F)(F)F)C3=O)ccnc2c(OC)n1 + Nc1ccc(C#CCN(C(=O)Cc2ncc(C(F)(F)F)cc2C(F)(F)F)c2ccc(F)cc2)nn1,IC50,second compound 0.0316 µM,> 10 µM
same,IC50,second compound 0.1 µM,> 10 µM
same,IC50,second compound 0.316 µM,> 10 µM
same,IC50,second compound 1 µM,> 10 µM
same,IC50,second compound 3.16 µM,> 10 µM
same,IC50,second compound 10 µM,> 10 µM
same,"viability, T/C",[1],98%
same,"viability, T/C",[2],105%
same,"viability, T/C",[3],116%
same,"viability, T/C",[4],137%
same,"viability, T/C",[5],103%
same,"viability, T/C",[6],80.2%
same,"viability, T/C",[7],115%
same,"viability, T/C",[8],117%
same,"viability, T/C",[9],104%
same,"viability, T/C",[10],125%
same,"viability, T/C",[11],99.2%
same,"viability, T/C",[12],117%
same,"viability, T/C",[13],98.8%
same,"viability, T/C",[14],107%
same,"viability, T/C",[15],116%
same,"viability, T/C",[16],124%
same,"viability, T/C",[17],127%
same,"viability, T/C",[18],82.1%
same,"viability, T/C",[19],103%
same,"viability, T/C",[20],93.7%
same,"viability, T/C",[21],125%
same,"viability, T/C",[22],123%
same,"viability, T/C",[23],99%
same,"viability, T/C",[24],105%
same,"viability, T/C",[25],105%
same,"viability, T/C",[26],104%
same,"viability, T/C",[27],120%
same,"viability, T/C",[28],124%
same,"viability, T/C",[29],111%
same,"viability, T/C",[30],105%
same,"viability, T/C",[31],118%
same,"viability, T/C",[32],101%
same,"viability, T/C",[33],129%
same,"viability, T/C",[34],135%
same,"viability, T/C",[35],120%
same,"viability, T/C",[36],92.8%
CNCc1ccc(-c2[nH]c3cc(F)cc4c3c2CCNC4=O)cc1 + Nc1ccc(C#CCN(C(=O)Cc2ncc(C(F)(F)F)cc2C(F)(F)F)c2ccc(F)cc2)nn1,IC50,second compound 0.0316 µM,> 10 µM
same,IC50,second compound 0.1 µM,> 10 µM
same,IC50,second compound 0.316 µM,> 10 µM
same,IC50,second compound 1 µM,> 10 µM
same,IC50,second compound 3.16 µM,> 10 µM
same,IC50,second compound 10 µM,> 10 µM
same,"viability, T/C",[1],109%
same,"viability, T/C",[2],115%
same,"viability, T/C",[3],123%
same,"viability, T/C",[4],108%
same,"viability, T/C",[5],74.8%
same,"viability, T/C",[6],84.5%
same,"viability, T/C",[7],133%
same,"viability, T/C",[8],93%
same,"viability, T/C",[9],104%
same,"viability, T/C",[10],96.3%
same,"viability, T/C",[11],107%
same,"viability, T/C",[12],83.9%
same,"viability, T/C",[13],144%
same,"viability, T/C",[14],82.9%
same,"viability, T/C",[15],78.2%
same,"viability, T/C",[16],78.2%
same,"viability, T/C",[17],81.2%
same,"viability, T/C",[18],82.8%
same,"viability, T/C",[19],128%
same,"viability, T/C",[20],83.3%
same,"viability, T/C",[21],99.3%
same,"viability, T/C",[22],88.2%
same,"viability, T/C",[23],92.3%
same,"viability, T/C",[24],75.5%
same,"viability, T/C",[25],116%
same,"viability, T/C",[26],96.1%
same,"viability, T/C",[27],134%
same,"viability, T/C",[28],122%
same,"viability, T/C",[29],106%
same,"viability, T/C",[30],81.4%
same,"viability, T/C",[31],125%
same,"viability, T/C",[32],98.4%
same,"viability, T/C",[33],104%
same,"viability, T/C",[34],129%
same,"viability, T/C",[35],108%
same,"viability, T/C",[36],96.8%

# From PubChem BioAssay AID1963831 (Molecular Pharmacology Branch, DTP, NCI, 2024)
